Values quoted from earlier work as cited in patent US20220395489A1, “THERAPEUTIC APPROACH FOR TREATING INFLAMMATORY BOWEL DISEASE” (THE REGENTS OF THE UNIVERSITY OF CALIFORNIA, priority 2019, published 2022).
Non-standard residues stand in square brackets, D forms with d. Residues, ends and D or L forms follow the SMILES beside them. *: point of attachment. Sta = CC(C)C[C@H](N)[C@@H](O)CC(=O)O; Isovaleryl = CC(C)CC(=O)*

Assays:
[1] = low pH values, compared with PMSF
[2] = water

SMILES	stability [1]	solubility [2]	ability to inhibit pepsin (pepsin)
Cl.NCCc1ccc(S(=O)(=O)F)cc1 [AEBSF, 4-(2-aminoethyl)benzenesulfonyl fluoride hydrochloride]	more stable	water-soluble	
CC(C)CC(=O)N[C@H](C(=O)N[C@H](C(=O)N[C@@H](CC(C)C)[C@@H](O)CC(=O)N[C@@H](C)C(=O)N[C@@H](CC(C)C)[C@@H](O)CC(=O)O)C(C)C)C(C)C [Pepstatin, Isovaleryl-Val-Val-Sta-Ala-Sta] (Isovaleryl-VV[Sta]A[Sta]-OH)			picomolar concentrations
